In patent publication US6667322B2, “Antidepressant chroman and chromene derivatives of 3-(1,2,3,6-tetrahydro-4-pyridinyl)-1H-indole” (Wyeth, priority 2001, dated 2003):
Where a name gives a salt, the structure may show the parent alone. Read-outs that look alike come from different tables or passages of the source.

Tests used:
[1] = biological target: T1, serotonin transporter (Rattus norvegicus, UniProt P31652); test: 3H-paroxetine displacement from rat frontal cortical membranes (serotonin transporter affinity); assay type: binding
T1 construct: displace ^3H-paroxetine from male rat frontal cortical membranes; from tissue; host or cells: male rat frontal cortex membranes
T1 sequence (P31652 whole entry): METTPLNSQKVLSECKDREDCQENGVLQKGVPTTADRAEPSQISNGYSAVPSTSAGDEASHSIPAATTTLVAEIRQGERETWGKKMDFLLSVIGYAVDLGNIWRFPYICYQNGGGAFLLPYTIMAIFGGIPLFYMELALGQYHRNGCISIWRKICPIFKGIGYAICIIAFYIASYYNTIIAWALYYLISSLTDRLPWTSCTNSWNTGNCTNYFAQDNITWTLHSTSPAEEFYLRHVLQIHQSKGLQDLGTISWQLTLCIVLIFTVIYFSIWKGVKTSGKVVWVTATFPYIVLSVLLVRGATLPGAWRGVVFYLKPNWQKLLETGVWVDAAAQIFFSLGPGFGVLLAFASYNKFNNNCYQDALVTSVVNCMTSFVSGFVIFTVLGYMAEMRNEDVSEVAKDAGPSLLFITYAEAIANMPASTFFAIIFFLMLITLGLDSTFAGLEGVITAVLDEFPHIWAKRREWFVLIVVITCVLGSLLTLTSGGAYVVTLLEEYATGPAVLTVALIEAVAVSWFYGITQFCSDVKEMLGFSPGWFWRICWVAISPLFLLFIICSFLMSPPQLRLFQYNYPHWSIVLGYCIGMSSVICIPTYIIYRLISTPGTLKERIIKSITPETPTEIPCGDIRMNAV

[2] = biological target: T2, cloned human 5-HT1A receptors (Homo sapiens, UniProt P08908); test: 35S-GTPγS binding assay, agonist activity at 5-HT1A receptors; assay type: biochemical; conditions: for EC50: 35S-GTPγS binding to membranes containing cloned human 5-HT1A receptors, read-out: 5-HT1A Function EC50; for Emax: read-out: 5-HT1A Function (Emax)
T2 construct: expressed in transfected cells
T2 sequence (P08908 1-422): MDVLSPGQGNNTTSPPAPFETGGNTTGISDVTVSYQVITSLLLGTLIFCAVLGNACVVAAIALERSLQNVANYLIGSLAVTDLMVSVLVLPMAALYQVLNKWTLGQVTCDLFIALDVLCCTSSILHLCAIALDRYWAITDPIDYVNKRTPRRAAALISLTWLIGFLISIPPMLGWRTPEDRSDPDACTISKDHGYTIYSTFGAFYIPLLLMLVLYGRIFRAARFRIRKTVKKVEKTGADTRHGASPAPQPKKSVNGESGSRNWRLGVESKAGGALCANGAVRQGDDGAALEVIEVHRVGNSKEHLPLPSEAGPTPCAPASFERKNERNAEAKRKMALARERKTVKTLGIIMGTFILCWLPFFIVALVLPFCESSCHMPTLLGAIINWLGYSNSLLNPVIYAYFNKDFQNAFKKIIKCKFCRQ
Experimental: Agonist activity at 5-HT1A receptors was established by using a ^35S-GTPγbinding assay similar to that used by Lazareno and Birdsall (Br. J. Pharmacol. 109: 1120, 1993), in which the test compound's ability to affect the binding of ^35S-GTPγS to membranes containing cloned human 5-HT1A receptors was determined. Agonists produce an increase in binding whereas antagonists produce no increase but rather reverse the effects of the standard agonist 8-OHDPAT. The test compound's maximum stimulatory effect is represented as the Emax, while its potency is defined by the EC50.

[3] = biological target: T3, human 5-HT1A receptors (Homo sapiens, UniProt P08908); test: [3H] 8-OHDPAT displacement from 5-HT1A receptor in transfected CHO cells; assay type: binding
T3 construct: expressed in transfected cells; host or cells: CHO cells
T3 sequence (P08908 1-422): T2 sequence (P08908 1-422)
Excerpt: High affinity for the serotonin 5-HT1A receptor was established by testing the claimed compound's ability to displace [^3H] 8-OHDPAT (dipropylamino-tetralin) from the 5-HT1A serotonin receptor following a modification of the procedure of Hall et al., J. Neurochem. 44, 1685 (1985) which utilizes CHO cells stably transfected with human 5-HT1A receptors.

[4] = displacement of 3H-paroxetine, male rat frontal cortical membranes, read-out: 5-HT Transporter Affinity KI
[5] = displacement of [3H] 8-OHDPAT, CHO cells stably transfected with human 5-HT1A receptors, read-out: 5-HT1A Receptor Affinity KI

Structure (SMILES)	Ki [1]	melting point	EC50 [2]	Emax [2]	Ki [3]	Ki [1, 4]	Ki [3, 5]	5-HT1A Function (Emax) ([2]; maximum stimulatory effect, 35S-GTPγS binding, cloned human 5-HT1A receptors, value in parentheses)
COc1cccc2c1OC(CN1CC=C(c3c[nH]c4ccccc34)CC1)C=C2 (stereo not shown) [Example 9, 3-(1-{[8-Methoxy-2H-chromen-2-yl]methyl}-1,2,3,6-tetrahydro-4-pyridinyl)-1H-indole]	9.5 nM	198 to 200 °C (dec.)	208 nM	67%	96.5 nM	–	–	–
COc1cccc2c1OC(CN1CC=C(c3c[nH]c4cc(F)ccc34)CC1)CC2 (stereo not shown) [Example 7, 6-Fluoro-3-(1-{[8-methoxy-3,4-dihydro-2H-chromen-2-yl]methyl}-1,2,3,6-tetrahydro-4-pyridinyl)-1H-indole]	8.5 nM	> 170 °C (dec.)	854 nM	64%	45 nM	–	–	–
Fc1ccc2[nH]c(CC3CCN(CC4CCc5ccccc5O4)CC3)cc2c1 (stereo not shown) [Example 1, 2-{[1-(3,4-Dihydro-2H-chromen-2-ylmethyl)-4-piperidinyl]methyl}-5-fluoro-1H-indole]	–	–	–	–	–	0.13 nM	265 nM	–
Fc1ccc2[nH]c(CC3CCN(CC4CCc5ccccc5O4)CC3)cc2c1 (stereo not shown) (as salt: oxalate) (hydrate or solvate) [Example 1, 2-{[1-(3,4-Dihydro-2H-chromen-2-ylmethyl)-4-piperidinyl]methyl}-5-fluoro-1H-indole]	–	187 to 190 °C	–	–	–	–	–	–
COc1cccc2c1OC(CN1CC=C(c3c[nH]c4ccc(F)cc34)CC1)CC2 (stereo not shown) [Example 4, 5-Fluoro-3-(1-{[8-methoxy-3,4-dihydro-2H-chromen-2-yl]methyl}-1,2,3,6-tetrahydro-4-pyridinyl)-1H-indole]	9.5 nM	177 to 180 °C (dec.)	283 nM	92%	34.4 nM	–	–	–
Fc1ccc2[nH]cc(C3=CCN(CC4CCc5ccccc5O4)CC3)c2c1 (stereo not shown) [Example 3, 3-[1-(3,4-Dihydro-2H-chromen-2-ylmethyl)-1,2,3,6-tetrahydro-4-pyridinyl]-5-fluoro-1H-indole]	4.84 nM	172 to 175 °C	398 nM	83%	–	–	299 nM	–
COc1cccc2c1OC(CN1CC=C(c3c[nH]c4ccc(F)cc34)CC1)C=C2 (stereo not shown) [Example 8, 5-Fluoro-3-(1-{[8-methoxy-2H-chromen-2-yl]methyl}-1,2,3,6-tetrahydro-4-pyridinyl)-1H-indole]	20 nM	189 to 191 °C (dec.)	1710 nM	60%	–	–	143 nM	–
Fc1ccc2c(C3=CCN(CC4CCc5ccccc5O4)CC3)c[nH]c2c1 (stereo not shown) [Example 6, 3-[1-(3,4-Dihydro-2H-chromen-2-ylmethyl)-1 2,3,6-tetrahydro-4-pyridinyl]-6-fluoro-1H-indole]	0.34 nM	160 to 161 °C	2480 nM	100%	–	–	–	–
C1=C(c2c[nH]c3ccccc23)CCN(CC2CCc3ccccc3O2)C1 (stereo not shown) [Example 2, 3-[1-(3,4-Dihydro-2H-chromen-2-ylmethyl)-1,2,3,6-tetrahydro-4-pyridinyl]-1H-indole]	1.18 nM	171 to 173 °C	–	50%	–	–	281 nM	–
COc1cccc2c1OC(CN1CC=C(c3c[nH]c4ccccc34)CC1)CC2 (stereo not shown) [Example 5, (3-(1-{8-Methoxy-3,4-dihydro-2H-chromen-2-yl]methyl}-1,2,3,6-tetrahydro-4-pyridinyl)-1H-indole]	–	–	189 nM	–	–	10 nM	39 nM	79.0
